# Data published in patent US9463252B2, “Auristatin drug linker conjugates” (priority 2008, dated 2016).
# Non-standard residues stand in square brackets, D forms with d. Residues, ends and D or L forms follow the SMILES beside them. *: point of attachment. Dolaproine = CO[C@@H]([C@@H]1CCCN1)[C@@H](C)C(=O)O; Hexanoyl(6-maleimido) = O=C1C=CC(=O)N1CCCCCC(=O)*; Dil = CC[C@H](C)[C@H](NC)[C@@H](CC(=O)O)OC; NMeV = CN[C@H](C(=O)O)C(C)C
# What was measured:
# [1] = tested on: L540cy; assay: Cytotoxicity of Auristatin-Peptide-cAC10 conjugates on CD30+ cells; assay type: cell-based, human
# Experimental: (§1) Following the procedure described in Example 57, Auristatin-Dipeptide-cAC10 antibody conjugates were evaluated on CD30+ positive cell lines, Karpas 299, L428 and L540cy. In addition, a control conjugate, cAC10-vc-PABC-MMAF, was used. […] The conjugates contain approximately 4 drugs per antibody.
# (§2) Following the procedure described as Examples 57 and 58, the activities of Auristatin-Peptide-cAC10 conjugates were evaluated on CD30^+ cells, such as Karpas 299, L428, and L540cy. The activities of Auristatin-Peptide-hBU12 conjugates were evaluated on CD19^+ cells such as Ramos, SUDHL-4, and ARH-77. The activities of Auristatin-Peptide-anti-LIV-1 conjugates were evaluated on LIV-1 positive cell lines MCF-7 and SKOV-3. The activities of Auristatin-Peptide-BR96 conjugates were evaluated on Le^y positive cells H3396, RCA, and L2987. All conjugates contain approximately 4 drugs per antibody.
# [2] = tested on: Karpas 299; assay: as above; assay type: cell-based, human
# Experimental: as §1, §2
# [3] = tested on: L428; assay: Cytotoxicity of Auristatin-Peptide-h1F6 conjugates, resazurin assay; assay type: cell-based; conditions: for IC50 L428: ~4 drugs/Ab
# Text: (§3) The conjugates contain approximately 4 drugs per antibody.
# [4] = tested on: UMRC-3; assay: as above; assay type: cell-based
# Text: as §3
# [5] = tested on: Caki-1; assay: as above; assay type: cell-based
# Text: as §3
# [6] = tested on: U251; assay: as above; assay type: cell-based; conditions: Table 4, ~4 drugs/Ab
# Text: as §3
# [7] = tested on: L428; assay: Cytotoxicity of Auristatin-Peptide-cAC10 conjugates on CD30+ cells; assay type: cell-based
# Experimental: as §1, §2
# [8] = tested on: 786-O; assay: Cytotoxicity of Auristatin-Peptide-h1F6 conjugates, resazurin assay; assay type: cell-based, human; conditions: for IC50 786-0: Table 4
# Text: as §3
# [9] = tested on: LP-1; assay: as above; assay type: cell-based, human
# Text: as §3
# [10] = tested on: HCT-116 (CD70−); assay: Cytotoxicity of Auristatin-Peptide-h1F6 conjugates, CD70- control cell line; assay type: cell-based
# Text: as §3
# [11] = tested on: Caki-2; assay: Cytotoxicity of Auristatin-Peptide-h1F6 conjugates, resazurin assay; assay type: cell-based; conditions: Table 5; h1F6 conjugates, ~4 drugs/Ab
# Experimental: as §3
# Following the procedure described as Examples 57 and 58, Auristatin-Peptide-h1F6 conjugates were evaluated on CD70^+ cell, such as 786-O, Caki-1, Caki-2, and L428. Conjugates contain approximately 4 drugs per antibody.
# [12] = Tolerability (MTD) of conjugates in mice; assay type: in vivo, mouse; conditions: h1F6 conjugates; for tolerability at 100 mg/kg dose (in words): single dose 100 mg/kg
# Experimental: The tolerability, measured as maximum tolerated dose (MTD), was determined in mice based on animals' weight loss after treatment. Animals were usually monitored for 14 days. A conjugate is considered to be tolerated at a determined dose if single iv treatment at such dose results in a transient weight loss of no more than 20% of initial body weight of animals and no other signs of toxicity are observed. […] AF-Met-(D)Lys and AF-Asn-(D)Lys conjugates were tolerated at doses as high as 100 mg/kg (FIG. 7). Corresponding conjugates of auristatins containing Methionine (AM) and Tryptophan (AW) at the C-terminal position of the drug were tolerated even better, up to 150 mg/kg (FIG. 8). […] Thus, the Auristatin-Dipeptide Drug Linkers provide ADCs with significant therapeutic window for therapeutic treatment (e.g., cancer).
# [13] = tested on: MCF-7; assay: Cytotoxicity of Auristatin-Peptide-anti-LIV-1 conjugates on LIV-1 positive cells; assay type: cell-based; conditions: Table 11, ~4 drugs per antibody
# Experimental: as §2
# [14] = tested on: SKOV-3; assay: as above; assay type: cell-based; conditions: Table 11, ~4 drugs per antibody
# Experimental: as §2
# [15] = tested on: ARH-77; assay: Cytotoxicity of Auristatin-Peptide-hBU12 conjugates on CD19+ cells; assay type: cell-based; conditions: Table 11, ~4 drugs per antibody
# Experimental: as §2
# [16] = tested on: SUDHL-4; assay: as above; assay type: cell-based; conditions: Table 11, ~4 drugs per antibody
# Experimental: as §2
# [17] = tested on: Ramos; assay: as above; assay type: cell-based; conditions: Table 11, ~4 drugs per antibody
# Experimental: as §2
# [18] = tested on: H3396; assay: Cytotoxicity of Auristatin-Peptide-BR96 conjugates on Le^y positive cells; assay type: cell-based; conditions: Table 11, ~4 drugs per antibody
# Experimental: as §2
# [19] = tested on: RCA; assay: as above; assay type: cell-based; conditions: Table 11, ~4 drugs per antibody
# Experimental: as §2
# [20] = tested on: L2987; assay: as above; assay type: cell-based; conditions: Table 11, ~4 drugs per antibody
# Experimental: as §2
# [21] = Table 4, h1F6 conjugates, ~4 drugs/Ab
# [22] = Table 5, h1F6 conjugates, ~4 drugs/Ab
# [23] = Table 7, h1F6 conjugates, AF vs MMAF
# [24] = Table 8, h1F6 conjugates, D vs L amino acid in second linker position
# [25] = Table 9, h1F6-Drug(4) conjugates, mono- vs dipeptide linker
# [26] = Table 11, ~4 drugs per antibody
Molecule,"IC50 L540cy ([1]; Table 6, ~4 drugs/Ab) [ng/mL]","IC50 Karpas 299 ([2]; Table 6, ~4 drugs/Ab) [ng/mL]","IC50 L428 ([3]; Table 4, h1F6 conjugates) [ng/mL]","IC50 UMRC-3 [4, 21] [ng/mL]","IC50 Caki-1 [5, 21] [ng/mL]",IC50 U251 [6] [ng/mL],"IC50 L428 ([7]; Table 6, ~4 drugs/Ab) [ng/mL]","IC50 786-0 ([8]; h1F6 conjugates, ~4 drugs/Ab) [ng/mL]","IC50 LP-1 [9, 21]","IC50 HCT-116 (CD70−) ([10]; Table 4, ~4 drugs/Ab) [ng/mL]",other results
vc-PABC-MMAF [reference compound],3,3,7,14,3,10,0.5,7,22 ng/mL,>1000,"IC50 L428 ([3]; Table 5, h1F6 conjugates): 4 ng/mL; IC50 Caki-1 [5, 22]: 12 ng/mL; IC50 786-O [8, 22]: 5 ng/mL; IC50 HCT-116 (CD70−) ([10]; Table 5, ~4 drugs/Ab): >1000 ng/mL; IC50 Caki-2 [11]: 11 ng/mL"
AF-Tyrosine-(D)Aspartic Acid-diaminoethane-propionyl maleimide [AF-Tyr-(D)Asp],0.7,0.6,27,32,9,72,0.06,24,398 ng/mL,>1000,
AF-Methionine-(D)Lysine-diaminoethane-propionyl maleimide [AF-Met-(D)Lys],3,2,1698,132,25,98,1.5,55,">10,000 ng/mL",>1000,"IC50 L-428 [3, 23]: 158 ng/mL; IC50 L-428 [3, 24]: 158 ng/mL; IC50 L-428 [3, 25]: 158 ng/mL; IC50 UMRC-3 [4, 23]: 182 ng/mL; IC50 UMRC-3 [4, 24]: 182 ng/mL; IC50 UMRC-3 [4, 25]: 182 ng/mL; IC50 Caki-1 [5, 23]: 9 ng/mL; IC50 Caki-1 [5, 24]: 9 ng/mL; IC50 Caki-1 [5, 25]: 9 ng/mL; IC50 786-O [8, 23]: 12 ng/mL; IC50 786-O [8, 24]: 12 ng/mL; IC50 786-O [8, 25]: 12 ng/mL; IC50 LP-1 [9, 23]: >1000 ng/mL; IC50 LP-1 [9, 24]: >1000 ng/mL; IC50 LP-1 [9, 25]: >1000 ng/mL"
AF-Asparagine-diaminoethane-propionyl maleimide [AF-Asn],,,,,,,,,,,"IC50 L-428 [3, 25]: 9 ng/mL; IC50 UMRC-3 [4, 25]: 28 ng/mL; IC50 Caki-1 [5, 25]: 6 ng/mL; IC50 786-O [8, 25]: 10 ng/mL; IC50 LP-1 [9, 25]: 209 ng/mL; tolerability at 50 mg/kg dose (in words) ([12]; single dose 50 mg/kg, FIG. 15): toxic"
"CC[C@H](C)[C@@H]([C@@H](CC(=O)N1CCC[C@H]1[C@H](OC)[C@@H](C)C(=O)N[C@@H](Cc1ccccc1)C(=O)O)OC)N(C)C(=O)[C@@H](NC(=O)[C@H](C(C)C)N(C)C(=O)CCCCCN1C(=O)C=CC1=O)C(C)C [MC-MMAP, Maleimidocaproyl-monomethylauristatin F, reference compound] ({Hexanoyl(6-maleimido)}-[NMeV]V[Dil][Dolaproine]F-OH)",,,,,,,,,,,"IC50 L540cy [1, 26]: 7 ng/mL; IC50 Karpas 299 [2, 26]: 3 ng/mL; IC50 MCF-7 [13]: 3 ng/mL; IC50 SKOV-3 [14]: 2450 ng/mL; IC50 ARH-77 [15]: 255 ng/mL; IC50 SUDHL-4 [16]: ~10,000 ng/mL; IC50 Ramos [17]: 7 ng/mL; IC50 L428 [7, 26]: 1 ng/mL; IC50 H3396 [18]: 42 ng/mL; IC50 RCA [19]: 7400 ng/mL; IC50 L2987 [20]: 626 ng/mL"
AF-Trimethyllysine-Proline-diaminoethane-propionyl-maleimide [AF-Me3Lys-Pro],0.8,0.6,24,30,11,78,0.09,20,298 ng/mL,>1000,
AF-β-alanine-(D)Aspartic Acid-diaminoethane-propionyl maleimide [AF-β-Ala-(D)Asp],1.6,371,1096,132,1585,93,0.5,525,">10,000 ng/mL",>1000,
AF-Phenylglycine-(D)Lysine-diaminoethane-propionyl maleimide [AF-PhenylGly-(D)Lys],6,21,275,1096,44,98,2,339,">10,000 ng/mL",>1000,
AF-Norvaline-(D)Aspartic Acid-diaminoethane-propionyl maleimide [AF-NorVal-(D)Asp],0.6,0.5,24,25,12,78,0.09,28,537 ng/mL,>1000,
AF-Asparagine-(D)Lysine-diaminoethane-propionyl maleimide [AF-Asn-(D)Lys],4,44,24,28,10,60,0.1,19,417 ng/mL,>1000,"IC50 L-428 [3, 23]: 9 ng/mL; IC50 L-428 [3, 24]: 9 ng/mL; IC50 L-428 [3, 25]: 9 ng/mL; IC50 UMRC-3 [4, 23]: 32 ng/mL; IC50 UMRC-3 [4, 24]: 32 ng/mL; IC50 UMRC-3 [4, 25]: 32 ng/mL; IC50 Caki-1 [5, 23]: 6 ng/mL; IC50 Caki-1 [5, 24]: 6 ng/mL; IC50 Caki-1 [5, 25]: 6 ng/mL; IC50 786-O [8, 23]: 10 ng/mL; IC50 786-O [8, 24]: 10 ng/mL; IC50 786-O [8, 25]: 10 ng/mL; IC50 LP-1 [9, 23]: 479 ng/mL; IC50 LP-1 [9, 24]: 479 ng/mL; IC50 LP-1 [9, 25]: 479 ng/mL; tolerability at 100 mg/kg dose (in words) [12]: tolerated"
MMAF-Asparagine-(D)Lysine-diaminoethane-propionyl maleimide [MMAF-Asn-(D)Lys],,,,,,,,,,,"IC50 L-428 [3, 23]: 7 ng/mL; IC50 UMRC-3 [4, 23]: 19 ng/mL; IC50 Caki-1 [5, 23]: 7 ng/mL; IC50 786-O [8, 23]: 9 ng/mL; IC50 LP-1 [9, 23]: 110 ng/mL; tolerability at 100 mg/kg dose (in words) [12]: animal loss"
AF-Isoleucine-Proline-diaminoethane-propionyl maleimide [AF-Ile-Pro],0.7,0.6,5,16,9,45,0.1,9.8,219 ng/mL,>1000,
